Results on two molecules are retold here after ChEMBL document CHEMBL1155390, “Isolation and biological evaluation of 8-epi-malyngamide C from the Floridian marine cyanobacterium Lyngbya majuscula” (J Nat Prod, 2010).

Activity calls are given as the source filed them. No cut-off for these calls is given here.

In experiment [1] the test system is HT-29. Kind of experiment: Cytotoxicity against human HT-29 cells after 48 hrs MTT assay. Format: functional, cell-based. Conditions: HT-29, 48 h. A general note: Tetrazolium assays rely on reduction of a dye to a coloured formazan, in cell work by metabolically active cells.
The subject of experiment [2] is Escherichia coli. The experiment can be described thus: Antibacterial activity against Escherichia coli JM109 harboring pSB1075 assessed as cell density at 10 to 1000 uM after 6.5 hrs.
Experiment [3] deals with Escherichia coli. The experiment can be described thus: Inhibition of quorum sensing in Escherichia coli JM109 harboring pSB1075 assessed as suppression of LasR-mediated 3-oxo-C12-HSL signaling at 10 to 1000 uM after 6.5 hrs by reporter gene assay.

By IC50 is commonly meant the midpoint of a concentration-inhibition curve. The low end stands for inhibition by little substance, the high end for a need for much substance. For the molecule `CCCCCCC[C@@H](C/C=C/CCC(=O)NC/C(=C/Cl)[C@]12O[C@H]1[C@H](O)CCC2=O)OC`, half-maximal inhibition in experiment [1] (IC50) was put at 15.4 µM. Moreover, in experiment [2], the result was inactive. For the same molecule, in experiment [3], the outcome was Active.

`CCCCCCC[C@@H](C/C=C/CCC(=O)NC/C(=C/Cl)[C@]12O[C@H]1[C@@H](O)CCC2=O)OC` [MALYNGAMIDE C]: in experiment [1], the IC50 came out at 5.2 µM. For the same molecule, the outcome in experiment [2] was inactive. In addition, the result in experiment [3] was Active.
